# From PubChem BioAssay (NCI)
#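 Five compound concentrations were applied to cells in 96-well plates for 48 hours; endpoints were derived by simple linear interpolation of the resulting dose-response curve. At the TGI there is no net growth.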 Where a SMILES comes first, the peptide text is derived from it. The star is where a group is joined. Boc = CC(C)(C)OC(=O)*
# Tests used:
# Test in all cases: inhibition of tumour cell growth, NCI panel, 48 h
# HCC-2998 colon = test system: HCC-2998 colon
# A498 renal = test system: A498 renal
# SK-MEL-2 melanoma = test system: SK-MEL-2 melanoma
# RPMI-8226 leukemia = test system: RPMI-8226 leukemia
# COLO 205 colon = test system: COLO 205 colon
# NCI-H23 lung = test system: NCI-H23 lung
# SK-OV-3 ovarian = test system: SK-OV-3 ovarian
# KM12 colon = test system: KM12 colon
# OVCAR-3 ovarian = test system: OVCAR-3 ovarian
# UACC-62 melanoma = test system: UACC-62 melanoma
# HCT-15 colon = test system: HCT-15 colon
# ACHN renal = test system: ACHN renal
# OVCAR-4 ovarian = test system: OVCAR-4 ovarian
# U251 CNS = test system: U251 CNS
# SR leukemia = test system: SR leukemia
# HL-60(TB) leukemia = test system: HL-60(TB) leukemia
# SK-MEL-5 melanoma = test system: SK-MEL-5 melanoma
# NCI/ADR-RES ovarian = test system: NCI/ADR-RES ovarian
SMILES,TGI (HCC-2998 colon) [µM],TGI (A498 renal) [µM],TGI (SK-MEL-2 melanoma) [µM],TGI (RPMI-8226 leukemia) [µM],TGI (COLO 205 colon) [µM],TGI (NCI-H23 lung) [µM],TGI (SK-OV-3 ovarian) [µM],TGI (KM12 colon) [µM],TGI (OVCAR-3 ovarian) [µM],TGI (UACC-62 melanoma) [µM],TGI (HCT-15 colon) [µM],TGI (ACHN renal) [µM],TGI (OVCAR-4 ovarian) [µM],TGI (U251 CNS) [µM],TGI (SR leukemia) [µM],TGI (HL-60(TB) leukemia) [µM],TGI (SK-MEL-5 melanoma) [µM],TGI (NCI/ADR-RES ovarian) [µM]
CC1=NN(c2ccccc2)C(=O)C1=C1SCCS1,> 100,> 100,> 100,> 49.5,> 56.8,> 100,> 100,> 100,> 100,> 100,> 59.7,> 100,> 100,> 90.3,> 54.4,> 58.9,> 100,
CC(NC(=O)C(NC(=O)OC(C)(C)C)C(C)C)C(=O)N1CCCC1C(=O)NCC(=O)NC(C(=O)NCC(=O)O)C(C)C (centres undefined) (Boc-VAPGVG-OH; configuration not given here),> 100,> 100,> 100,> 100,> 100,> 100,> 100,,> 100,> 100,> 100,> 100,> 100,> 100,> 100,> 100,,> 100
CC(=O)OC1CCN(C(=O)c2ccccc2)CC1CC1(c2cc3ccccc3[nH]2)OCCO1 (centres undefined),> 100,96.2,> 100,70.4,> 100,> 100,> 100,> 100,> 100,> 100,> 100,> 100,> 100,> 100,,53.6,> 100,> 100
CC(=O)c1cccc(NC(=O)/C(=N\NC(C)(C)C)c2c(O)c3ccccc3oc2=O)c1,> 100,,> 100,,> 100,> 100,> 100,> 100,> 100,> 100,> 100,> 100,> 100,,> 100,> 100,> 100,
CN(C)c1ccc(-c2cc(=O)c3cc4c(cc3[nH]2)OCO4)cc1,> 100,> 100,> 100,> 100,> 100,> 100,,,> 100,> 100,> 100,> 100,> 100,> 100,> 100,> 100,> 100,
COc1ccc2c(c1)c(=O)c1ccccc1n2/C=C/C(=O)O,> 100,> 100,> 100,> 100,> 100,> 100,> 100,> 100,> 100,> 100,> 100,> 100,> 100,> 100,> 57.4,> 66.6,> 100,
CCCN(CCCCC(NC(C)=O)C(=O)NCc1ccccc1)C(=O)N(C)N=O (centres undefined),> 100,> 100,> 100,> 100,> 100,> 100,> 100,> 100,> 100,> 100,> 100,> 100,> 100,> 100,,,> 100,
COc1ccc(C[C@@H]2Cc3cc(OC)c(OC)cc3CN2C)cc1,> 100,> 100,> 100,> 100,,> 100,,> 100,> 100,,> 100,> 100,> 100,> 100,,,> 100,
COC(=O)[C@@H]1CN(C(=O)c2ccccc2)C(=O)N1,,> 100,,> 100,,> 100,,> 100,> 100,> 100,,> 100,> 100,> 100,> 100,> 100,> 100,> 100
COc1cccc2c1CCc1ccccc1CC2=O,> 100,> 100,> 100,> 100,> 100,> 100,> 100,> 100,> 100,> 100,> 100,> 100,> 100,> 100,> 100,> 100,> 100,
COc1ccc(N2C(=O)C3c4[nH]c5ccc(OC)cc5c4C4CCC(C(C)(C)C)CC4C3C2=O)cc1 (centres undefined),> 100,49.3,70.4,> 100,> 100,80.8,80,> 100,> 100,> 100,> 100,> 100,43.6,44.8,> 100,> 100,> 100,
CC(C)CNC(=O)CCc1cccc2c1oc1c(CCN)cccc12,29.3,32.3,36.7,,19.7,26.7,31.6,28.4,17.2,32,43,25.8,34,18.9,29,13.3,27.2,40.3
OC(c1nc2ccccc2s1)(C(F)(F)F)C(F)(F)F,> 100,> 100,> 100,> 100,> 100,> 100,> 100,> 100,> 100,> 100,> 100,> 100,> 100,> 100,,> 100,> 100,> 100
O=S1(=O)OCCOS(=O)(=O)C1I,> 100,> 100,> 100,> 100,> 100,> 100,> 100,> 100,> 100,> 100,,,> 100,,> 100,> 100,> 100,
COc1cc(C2=NN(C)C(c3ccc([N+](=O)[O-])o3)C2)cc(OC)c1OC (centres undefined),> 100,> 100,> 100,31.8,> 100,> 100,> 100,> 100,,> 100,32.7,> 100,> 100,> 100,38.6,> 100,> 100,
